Experiment [1] deals with T1, Bovine Striatum (3H-CCK-8-(SO3 H) receptor binding) (Bos taurus, UniProt P79266).
T1 construct: tissue homogenate (striatum approximately 0.26 mg protein in 2 mL final volume); from tissue; host or cells: bovine striatum membrane homogenate
T1 sequence (P79266 1-454): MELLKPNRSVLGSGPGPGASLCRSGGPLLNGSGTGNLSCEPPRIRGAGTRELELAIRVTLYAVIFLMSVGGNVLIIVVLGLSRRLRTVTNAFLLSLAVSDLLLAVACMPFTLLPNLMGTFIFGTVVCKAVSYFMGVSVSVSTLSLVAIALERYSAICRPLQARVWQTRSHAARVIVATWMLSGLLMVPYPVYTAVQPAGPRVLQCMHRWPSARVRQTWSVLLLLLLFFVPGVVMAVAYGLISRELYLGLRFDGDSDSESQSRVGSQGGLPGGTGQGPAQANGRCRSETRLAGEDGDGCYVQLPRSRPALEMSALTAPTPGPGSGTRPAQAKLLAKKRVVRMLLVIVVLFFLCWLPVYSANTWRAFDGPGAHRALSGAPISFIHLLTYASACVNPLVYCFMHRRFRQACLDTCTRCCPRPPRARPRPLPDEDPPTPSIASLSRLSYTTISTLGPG
Put plainly: In vitro receptor binding assay, 3H-CCK-8-(SO3H), bovine striatum homogenate. The following applies: 3H-CCK-8-(SO3H) 0.15 nM, 30 min at 25° C., bovine striatum homogenate; read-out: Bovine Striatum IC50 (concentration to inhibit 50% of specific 3H-CCK-8-(SO3H) binding). Here is the method: (§1) Frozen bovine striatum (approx. 5 g) or fresh rat pancreas (approx. 5 g) cleaned of fat and extraneous tissue were homogenized in HEPES buffer #1 (10 mM HEPES+130 mM NaCl+5 mM MgCl2, pH 7.4) using 35 parts buffer per 1 part tissue on a wet weight/volume basis (approx. 175 mL). The tissue was homogenized 2×for approx. 15 sec. at 0° C. using a Polytron homogenizer at a setting of 6. The tissue was isolated by centrifugation at 48,000× g for 10 min at 0° C. The resulting tissue pellet was resuspended in HEPES buffer #2 (10 mM HEPES+130 mM NaCl+5 mM MgCl2 +1 mg/L phenylmethanasulfonyl fluoride (PMSF)+200 mg/L Bacitracin): 1 part striatal tissue (original wet weight) per 80 parts buffer and 1 part pancreas tissue (original wet weight) per 500 to 1000 parts buffer.
(§2) Incubation was initiated by combining various concentrations of native CCK-8 or peptides of the invention with ^3 H-CCK-8-(SO3 H) (final conc.=0.15 nM) and tissue homogenate (striatum approximately 0.26 mg protein in 2 mL final volume; pancreas approximately 0.100 mg protein in 1 mL final volume). Samples were incubated for 30 min at 25° C. and the incubation terminated by pouring the mixture onto a pre-wetted Whatman GF/B filter on a Sandbeck Vacuum Filtration Manifold. The incubation tubes were washed with 2×3 mL of ice-cold HEPES Buffer #2 and the wash filtered through the GF/B filter. The filter was air dried for 10 min and then placed in a scintillation vial with 12 mL of DuPont/NEN Aquasol scintillation cocktail. The vials were shaken overnight and then counted using a liquid scintillation spectrometer. Non-specific binding was determined in the presence of 1 micromolar native CCK-8 and subtracted from all samples to determine specific binding. The concentration of peptide necessary to inhibit 50% of total specific H-CCK-8-(SO3 H) binding (IC50 value) was determined by log-probit analysis.

Experiment [2] has as its system Male Sprague-Dawley (CD) rats. Put plainly: Two-Meal Feeding Assay. Format: in vivo. Particulars: rat. How it is done:
Male Sprague-Dawley (CD) rats weighing 180-200 grams (Charres River Breeding Laboratories) were acclimated to a 12 h light/dark cycle (6 a.m. to 6 p.m.) in a room kept at 22° C. They were subsequently fasted for two days, weighed, placed in individual cages, and a four-day period of meal training was begun. During this time the rats were given ground laboratory chow (Purina Lab Chow) in jars for one hour from 9:00 a.m. until 10:00 a.m., the jars were removed from 10:00 a.m. to 12:00 p.m., and placed back in the cages from 12:00 until 1:00 p.m. Under this `1-2-1` meal feeding regime, most rats learn to eat approximately as much per day during the two hours they have access to food as rats which have food ad libitum over the entire 24-hour day. On the fourth day, the rats were weighed again, and any which lost more than five grams body weight were excluded from the test. The animals were then distributed into experimental (n=5 to 6) and control groups (n=6-12), but not matched for body weight.
Peptides of the invention were suspended either in saline, if soluble, or in 0.5% DMSO/saline, if insoluble, at concentrations of 0 to 320 μg/mL/kg body weight and were administered intraperitoneally 15 min before the first meal on day 5 of meal feeding. The rats were then given their meals as they had been during the previous four days, and the food cups were weighed both before and after each meal to determine food consumption. Food intake was expressed as a mean and standard error of the mean in percent of control values for the various groups. The treated groups were compared to the control groups by t-test analysis.

Experiment [3] concerns the target T2, rat pancreas (3H-CCK-8-(SO3 H) receptor binding) (Rattus norvegicus, UniProt P30551).
T2 construct: pancreas approximately 0.100 mg protein in 1 mL final volume; from tissue; host or cells: rat pancreas membrane homogenate
T2 sequence (P30551 1-444): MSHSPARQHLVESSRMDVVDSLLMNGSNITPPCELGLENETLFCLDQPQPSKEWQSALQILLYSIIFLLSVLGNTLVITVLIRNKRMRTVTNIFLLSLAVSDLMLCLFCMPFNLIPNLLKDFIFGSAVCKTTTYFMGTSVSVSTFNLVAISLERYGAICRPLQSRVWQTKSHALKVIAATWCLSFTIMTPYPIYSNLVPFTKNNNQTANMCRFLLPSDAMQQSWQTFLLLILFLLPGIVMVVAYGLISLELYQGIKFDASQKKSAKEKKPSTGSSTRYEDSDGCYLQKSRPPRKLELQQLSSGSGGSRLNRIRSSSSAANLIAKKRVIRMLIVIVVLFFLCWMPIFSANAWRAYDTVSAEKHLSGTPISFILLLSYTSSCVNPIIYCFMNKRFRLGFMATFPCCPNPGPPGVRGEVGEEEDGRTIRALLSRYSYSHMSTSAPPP
Put plainly: In vitro receptor binding assay, 3H-CCK-8-(SO3H), rat pancreas homogenate. The following applies: 3H-CCK-8-(SO3H) 0.15 nM, 30 min at 25° C., rat pancreas homogenate; read-out: Rate Pancreas IC50 (concentration to inhibit 50% of specific 3H-CCK-8-(SO3H) binding). How it is done: as §1, §2

Where [4] appears, read: dose 32 Microgram/kg intraperitoneally 15 min before first meal.
Where [5] appears, read: dose 320 Microgram/kg intraperitoneally 15 min before first meal.
Where [6] appears, read: dose 10 Microgram/kg intraperitoneally 15 min before first meal.
Where [7] appears, read: dose 100 Microgram/kg intraperitoneally 15 min before first meal.

The structures appear in SMILES notation. Starred links: 1 amine or outer side, 2 acyl side, 3 side chain; linkers in the order of their positions; H or OH if unused. Positions of bridges follow the written chain, without caps; N, C: chain ends. Non-standard residues stand in square brackets, D forms with d. Residues, ends and D or L forms follow the SMILES beside them. *: point of attachment. Propanoyl(3-(4-HOOCCH2-Ph)) = O=C(O)Cc1ccc(CCC(=O)*)cc1; X4 = O=C([C@@H](Cc1ccc(Cc2nn[nH]n2)cc1)N[*:1])[*:2]; X6 = O=C([C@H](Cc1ccc(Cc2nnn[nH]2)cc1)N[*:1])[*:2]; X9 = O=C(C(Cc1ccc(-c2nnn[nH]2)cc1)N[*:1])[*:2]; X10 = O=C(CCc1ccc(-c2nn[nH]n2)cc1)*; X2 = O=C(CCc1ccc(Cc2nnn[nH]2)cc1)*; NMeF = CN[C@@H](Cc1ccccc1)C(=O)O; Nle = CCCC[C@H](N)C(=O)O

On to `CSCC[C@@H]1NC(=O)[C@H](Cc2c[nH]c3ccccc23)NC(=O)CNC(=O)[C@@H](NC(=O)C(Cc2ccc(-c3nnn[nH]3)cc2)NC(C)=O)CCCCNC(=O)C[C@@H](C(=O)N(C)[C@@H](Cc2ccccc2)C(N)=O)NC1=O` (some centres unmarked) [Example 57] (Ac-[X9]KGWMD[NMeF]-NH2; lactam 2-6), for which the IC50 in experiment [1] was determined as 0.58 µM; in experiment [3] it was 1.1 µM. Further, the “Food Intake 1st Meal” value was 75 ± 6 % of Control in experiment [2] (setting [4]) and 36 ± 3 % of Control in experiment [2] (setting [5]). Also, the “Food Intake 2nd Meal” value in experiment [2] (setting [4]) was 160 ± 14 % of Control; in experiment [2] (setting [5]), 148 ± 6 % of Control.

For the compound `CCCC[C@H](NC(=O)[C@H](Cc1c[nH]c2ccccc12)NC(=O)CNC(=O)[C@H](CCCC)NC(=O)[C@@H](Cc1ccc(Cc2nn[nH]n2)cc1)NC(C)=O)C(=O)N[C@@H](CC(=O)O)C(=O)N(C)[C@@H](Cc1ccccc1)C(N)=O` [Example 64, Ac-(D)-Phe(4-CH2 -tetrazole)-Nle-Gly-Trp-Nle-Asp-N-methyl-Phe-NH2] (Ac-[X4][Nle]GW[Nle]D[NMeF]-NH2), the “Food Intake 1st Meal” value in experiment [2] (setting [6]) is recorded as 112 ± 10 % of Control; in experiment [2] (setting [4]) it was 79 ± 5 % of Control; in experiment [2] (setting [7]) it was 56 % of Control; in experiment [2] (setting [5]) it was 21 ± 6 % of Control. In addition, the “Food Intake 2nd Meal” value in experiment [2] (setting [6]) is recorded as 102 ± 9 % of Control; in experiment [2] (setting [4]), 148 ± 12 % of Control; in experiment [2] (setting [7]), 173 ± 5 % of Control; in experiment [2] (setting [5]) it was 207 % of Control.

Regarding `CCCC[C@H](NC(=O)[C@H](Cc1ccc(Cc2nnn[nH]2)cc1)NC(C)=O)C(=O)NCC(=O)N[C@@H](Cc1c[nH]c2ccccc12)C(=O)N[C@@H](CCCC)C(=O)N[C@@H](CC(=O)O)C(=O)N(C)[C@@H](Cc1ccccc1)C(N)=O` [Example 65, Ac-Phe(4-CH2 -tetrazole) -Nle-Gly-Trp-Nle-Asp- N-methyl-Phe-NH2] (Ac-[X6][Nle]GW[Nle]D[NMeF]-NH2), the IC50 is 0.069 µM in experiment [1] and 0.26 µM in experiment [3].

With `CCCC[C@H](NC(=O)CCc1ccc(Cc2nnn[nH]2)cc1)C(=O)NCC(=O)N[C@@H](Cc1c[nH]c2ccccc12)C(=O)N[C@@H](CCCC)C(=O)N[C@@H](CC(=O)O)C(=O)N(C)[C@@H](Cc1ccccc1)C(N)=O` [Example 66, Desamino-Phe(4-CH2 -tetrazole)-Nle-Gly-Trp-Nle-Asp-N-methyl-Phe-NH2] (X2-[Nle]GW[Nle]D[NMeF]-NH2), the IC50 worked out at 0.16 µM in experiment [1] and 0.71 µM in experiment [3].

For the compound `CSCC[C@@H]1NC(=O)[C@H](Cc2c[nH]c3ccccc23)NC(=O)CNC(=O)[C@@H](NC(=O)CCc2ccc(-c3nn[nH]n3)cc2)CCCCNC(=O)C[C@@H](C(=O)N(C)[C@@H](Cc2ccccc2)C(N)=O)NC1=O` [Example 68] (X10-KGWMD[NMeF]-NH2; lactam 1-5), the IC50 in experiment [1] is 1.4 µM; in experiment [3] it was 2.9 µM.

As to `CSCC[C@H](NC(=O)CCc1ccc(CC(=O)O)cc1)C(=O)NCC(=O)N[C@@H](Cc1c[nH]c2ccccc12)C(=O)N[C@@H](CCSC)C(=O)N[C@@H](CC(=O)O)C(=O)N(C)[C@@H](Cc1ccccc1)C(N)=O` [Example 69, Desamino-Phe(4-CH2 -COOH)-Met-Gly-Trp-Met-Asp-N-methyl-Phe-NH2] ({Propanoyl(3-(4-HOOCCH2-Ph))}-MGWMD[NMeF]-NH2), the IC50 was 0.0032 µM in experiment [1] and 0.0018 µM in experiment [3].

On to `CCCC[C@H](NC(=O)CCc1ccc(CC(=O)O)cc1)C(=O)NCC(=O)N[C@@H](Cc1c[nH]c2ccccc12)C(=O)N[C@@H](CCCC)C(=O)N[C@@H](CC(=O)O)C(=O)N(C)[C@@H](Cc1ccccc1)C(N)=O` [Example 70, Desamino-Phe(4-CH2 COOH)-Nle-Gly-Trp-Nle-Asp-N-methyl-Phe-NH2] ({Propanoyl(3-(4-HOOCCH2-Ph))}-[Nle]GW[Nle]D[NMeF]-NH2), for which the IC50 in experiment [1] came to 0.2 µM; in experiment [3], 0.33 µM.

Turning to `CCCC[C@H](NC(=O)CCc1ccc(CC(=O)O)cc1)C(=O)N[C@H](C)C(=O)N[C@@H](Cc1c[nH]c2ccccc12)C(=O)N[C@@H](CCCC)C(=O)N[C@@H](CC(=O)O)C(=O)N(C)[C@@H](Cc1ccccc1)C(N)=O` [Example 71, Desamino-Phe(4-CH2 COOH)-Nle-(D)Ala-Trp-Nle- Asp-N-methyl-Phe-NH2] ({Propanoyl(3-(4-HOOCCH2-Ph))}-[Nle][dA]W[Nle]D[NMeF]-NH2), the IC50 in experiment [1] came to 1.4 µM; in experiment [3] it was 1.8 µM.

Source of the values: patent US5508437A, “Analogs of tyrosine sulfate or tyrosine phosphate containing peptides” (Hoffmann-La Roche Inc., priority 1993, dated 1996).
